The source of these data is article PMC8635125, “A Novel Dibenzoxazepine Attenuates Intracellular Salmonella Typhimurium Oxidative Stress Resistance” (Microbiology Spectrum, 2021).

For assay [1], the system named is S. Typhimurium ATCC 14028. Nature of the assay: Analysis of bacterial susceptibility to H2O2 (CFU). The assay is classed as cell-based, Salmonella enterica serovar Typhimurium. Conditions: SW14 0.5 μM, 1 h. The method, then: Overnight-grown S. Typhimurium cultured in LB medium were diluted 1:50 in LPM medium or LB medium followed by incubation at 37°C for 3 h. The bacterial suspension was adjusted to an OD600 of 0.2 in fresh LPM medium or LB medium, exposed to SW14 and H2O2 for 1 h at 37°C with agitation, then serially diluted 10-fold in PBS, and spread on LB agar plates. After incubation at 37°C for 18 h, the number of colonies was counted, and the results are expressed as CFU/mL.

For assay [2], the system named is ciprofloxacin-resistant S. Typhimurium strains SA10 and SB10 in RAW264.7 cells. Nature of the assay: HCA of intracellular ciprofloxacin-resistant strains in macrophages. It counts as cell-based, Salmonella enterica serovar Typhimurium. Conditions: SA10 and SB10, gentamicin, 24 h. The procedure:
Overnight cultures of RFP-expressing S. Typhimurium were prepared for infection by 1:100 dilution in fresh LB broth and incubation for 2 h at 37°C. The bacteria were then collected by centrifugation at 6,000 × g for 3 min and suspended in phosphate-buffered saline (PBS; pH 7.2) to an optical density of 0.6 at 600 nm, which was equivalent to 5 × 10^8 CFU/mL. RAW264.7 macrophages were seeded in 96-well black clear-bottom plates (Greiner) and incubated for 20 h followed by infection with RFP-expressing S. Typhimurium at a multiplicity of infection (MOI) of 50 for 1 h. […] Afterward, the cells were washed and stained with CellTracker Green (Thermo Fisher Scientific) for 30 min in serum-free DMEM followed by fixation in 3.7% formaldehyde (Sigma-Aldrich) for 20 min and stained with 0.2 mg/L DAPI (4′,6-diamidino-2-phenylindole; AAT Bioquest) for 30 min. Images of individual wells were captured and analyzed using a high-content imaging system (ImageXpress Micro 4; Molecular Devices). The CC50 and 50% effective concentration (EC50) values against intracellular bacteria of each compound were determined using CalcuSyn software (Biosoft).

As to `Clc1ccc2c(c1)C(NCCN1CCNCC1)=Nc1ccccc1O2` [SW14], the “susceptibility of S. Typhimurium to H2O2” value in assay [1] (minimal LPM medium) is reported as “significantly increased”; in assay [1] (nutrient-rich LB broth), “not in nutrient-rich LB broth”. In assay [2], the “intracellular proliferation of ciprofloxacin-resistant isolates” value was “highly sensitive”.
